Results: paper PMC10604324, “Implications for Combination Therapy of Selective Monoamine Reuptake Inhibitors on Dopamine Transporters” (Biomedicines, 2023)
Several values for one entry are separate records, joined by “and”; a condition that tells them apart may be missing. Equal values may be shown once. Read-outs that look alike come from different tables or passages of the source.

Legend:
human DAT = human DAT (Homo sapiens, UniProt Q01959); test: Fluorescence-based neurotransmitter uptake assay, HEK-hDAT cells; type: cell-based
Chain of human DAT (Q01959 whole entry): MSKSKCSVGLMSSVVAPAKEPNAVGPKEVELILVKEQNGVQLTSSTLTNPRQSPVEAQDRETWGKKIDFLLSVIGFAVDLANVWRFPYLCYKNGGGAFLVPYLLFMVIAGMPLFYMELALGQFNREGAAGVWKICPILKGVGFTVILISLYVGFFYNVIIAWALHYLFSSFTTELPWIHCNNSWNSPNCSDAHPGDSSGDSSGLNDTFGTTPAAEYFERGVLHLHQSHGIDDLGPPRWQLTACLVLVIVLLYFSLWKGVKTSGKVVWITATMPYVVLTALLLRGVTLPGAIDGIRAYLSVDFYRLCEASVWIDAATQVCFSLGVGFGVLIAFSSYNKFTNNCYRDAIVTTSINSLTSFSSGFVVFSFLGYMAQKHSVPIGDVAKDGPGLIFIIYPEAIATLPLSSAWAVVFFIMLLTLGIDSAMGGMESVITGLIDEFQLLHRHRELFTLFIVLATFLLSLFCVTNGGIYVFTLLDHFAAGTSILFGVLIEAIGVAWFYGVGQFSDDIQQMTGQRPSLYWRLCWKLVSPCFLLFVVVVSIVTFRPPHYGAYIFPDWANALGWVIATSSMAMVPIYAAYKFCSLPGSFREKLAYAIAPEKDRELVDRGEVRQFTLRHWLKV

DAT [1] = tested on: DAT; design: method as in PMID 10997723; settings: effect of isethionate on mazindol binding; cited from earlier work
DAT [2] = settings: cited from earlier work
NET = settings: cited from earlier work
SERT = settings: cited from earlier work
[3] = DAT inhibition by monovalent ions
[4] = read-out: Literature IC50, substrate uptake assay, ref A.J. Eshleman, et al., J Pharmacol Exp Ther 289 (1999) 877-885
[5] = read-out: Literature IC50, substrate uptake assay, ref M.J. Hansard, et al., J Pharmacol Exp Ther 303 (2002) 952-958

SMILES: C[N+](C)(C)CCO [Choline]
- Hill coefficient (h) (human DAT): 1.4 ± 0.2
- IC50 (human DAT; [3]): 37 mM and 36.6 mM

SMILES: O=C(O)[C@H](O)[C@@H](O)[C@H](O)[C@H](O)CO [Gluconate]
- Hill coefficient (h) (human DAT; [3]): 1.2 ± 0.3
- IC50 (human DAT; [3]): 1.4 ± 0.2 mM

SMILES: O=S(=O)(O)CCO [Isethionate]
- Hill coefficient (h) (human DAT; [3]): 0.8 ± 0.2
- IC50 (human DAT; [3]): 3.3 ± 0.6 mM
- reduction of the binding of a DAT inhibitor, mazindol (DAT [1]): more than 50%

SMILES: CNC[C@H](O)[C@H](O)[C@H](O)[C@H](O)CO [NMDG]
- Hill coefficient (h) (human DAT; [3]): 11 and 10.6 ± 3.8
- IC50 (human DAT; [3]): 3.7 ± 0.2 mM

SMILES: CNCCC(Oc1ccccc1OC)c1ccccc1 (stereo not drawn) [Nisoxetine]
- IC50 (NET; [4]): 5.3 nM
